Data reported in ChEMBL document CHEMBL3885881, “DrugMatrix”.

Species on record: Rattus norvegicus
Test: DrugMatrix - Regimen: Daily Repeat
Assay type: toxicity, organism-based, Sprague-Dawley
Parameters: regimen Daily Repeat, gender Male, age 6-8 weeks
Conditions: in vivo, po, route oral GAVAGE, […]; for ABSOLUTE BASOPHIL / ABSOLUTE EOSINOPHIL / ABSOLUTE LYMPHOCYTE / ABSOLUTE MONOCYTE / ABSOLUTE SEGMENTED NEUTROPHIL / BASOPHIL / EOSINOPHIL / ERYTHROCYTE COUNT / HEMATOCRIT / HEMOGLOBIN / LEUKOCYTE COUNT / LYMPHOCYTE / MEAN CORPUSCULAR HEMOGLOBIN / MEAN CORPUSCULAR HEMOGLOBIN CONCENTRATION / MEAN CORPUSCULAR VOLUME / MONOCYTE / NEUTROPHIL / NUCLEATED RED BLOOD CELLS / PLATELET COUNT: tissue Blood; for ALANINE AMINOTRANSFERASE / ALKALINE PHOSPHATASE / ASPARTATE AMINOTRANSFERASE / BLOOD UREA NITROGEN / CARBON DIOXIDE / CHLORIDE / CHOLESTEROL / CREATINE PHOSPHOKINASE / CREATININE / GLUCOSE / LACTATE DEHYDROGENASE / LIPASE / PHOSPHORUS / POTASSIUM / SODIUM / TOTAL BILIRUBIN / TOTAL PROTEIN / URIC ACID: tissue Plasma
[1] = 0 mg/kg, 72 h, dose level Control, time 3 day
[2] = 0 mg/kg, 120 h, dose level Control, time 5 day
[3] = 36 mg/kg, 72 h, dose level Low, time 3 day

## c1ccc2c(c1)Nc1ccccc1S2 [PHENOTHIAZINE]
[1]
  ABSOLUTE BASOPHIL: 0 CELLS/uL
  ABSOLUTE EOSINOPHIL: 0 CELLS/uL
  ABSOLUTE LYMPHOCYTE: 6275.67 CELLS/uL
  ABSOLUTE MONOCYTE: 40.67 CELLS/uL
  ABSOLUTE SEGMENTED NEUTROPHIL: 633.67 CELLS/uL
  BASOPHIL: 0%
  EOSINOPHIL: 0%
  ERYTHROCYTE COUNT: 5.2 x10E6/uL
  HEMATOCRIT: 32.78%
  HEMOGLOBIN: 12.98 G/DL
  LEUKOCYTE COUNT: 6.95 x10E3/uL
  LYMPHOCYTE: 90.17%
  MEAN CORPUSCULAR HEMOGLOBIN: 24.97 pg
  MEAN CORPUSCULAR HEMOGLOBIN CONCENTRATION: 39.62 G/DL
  MEAN CORPUSCULAR VOLUME: 63.03 fL
  MONOCYTE: 0.67%
  NEUTROPHIL: 9.17%
  NUCLEATED RED BLOOD CELLS: 0 /100WBC
  PLATELET COUNT: 1082.83 x10E3/uL
  ALANINE AMINOTRANSFERASE: 69.67 u/L
  ALKALINE PHOSPHATASE: 430.5 u/L
  ASPARTATE AMINOTRANSFERASE: 90.83 u/L
  BLOOD UREA NITROGEN: 13 mg/dL
  CARBON DIOXIDE: 33 mmol/L
  CHLORIDE: 99.17 MEQ/L
  CHOLESTEROL: 70.5 mg/dL
  CREATINE PHOSPHOKINASE: 253.33 u/L
  CREATININE: 0.13 mg/dL
  GLUCOSE: 157.17 mg/dL
  LACTATE DEHYDROGENASE: 85 u/L
  LIPASE: 10 u/L
  PHOSPHORUS: 10.2 mg/dL
  POTASSIUM: 5.78 MEQ/L
  SODIUM: 144.12 MEQ/L
  TOTAL BILIRUBIN: 0.2 mg/dL
  TOTAL PROTEIN: 5.8 G/DL
  URIC ACID: 0.8 mg/dL
[2]
  ABSOLUTE BASOPHIL: 0 CELLS/uL
  ABSOLUTE EOSINOPHIL: 0 CELLS/uL
  ABSOLUTE LYMPHOCYTE: 10431 CELLS/uL
  ABSOLUTE MONOCYTE: 90.5 CELLS/uL
  ABSOLUTE SEGMENTED NEUTROPHIL: 1111.83 CELLS/uL
  BASOPHIL: 0%
  EOSINOPHIL: 0%
  ERYTHROCYTE COUNT: 5.51 x10E6/uL
  HEMATOCRIT: 34.67%
  HEMOGLOBIN: 13.5 G/DL
  LEUKOCYTE COUNT: 11.63 x10E3/uL
  LYMPHOCYTE: 89.67%
  MEAN CORPUSCULAR HEMOGLOBIN: 24.5 pg
  MEAN CORPUSCULAR HEMOGLOBIN CONCENTRATION: 38.95 G/DL
  MEAN CORPUSCULAR VOLUME: 62.87 fL
  MONOCYTE: 0.67%
  NEUTROPHIL: 9.67%
  NUCLEATED RED BLOOD CELLS: 0 /100WBC
  PLATELET COUNT: 1052.67 x10E3/uL
  ALANINE AMINOTRANSFERASE: 54.67 u/L
  ALKALINE PHOSPHATASE: 359.83 u/L
  ASPARTATE AMINOTRANSFERASE: 83 u/L
  BLOOD UREA NITROGEN: 13.5 mg/dL
  CARBON DIOXIDE: 27.17 mmol/L
  CHLORIDE: 98.5 MEQ/L
  CHOLESTEROL: 66.83 mg/dL
  CREATINE PHOSPHOKINASE: 256.17 u/L
  CREATININE: 0.19 mg/dL
  GLUCOSE: 171.33 mg/dL
  LACTATE DEHYDROGENASE: 91.5 u/L
  LIPASE: 10.5 u/L
  PHOSPHORUS: 8.72 mg/dL
  POTASSIUM: 5.34 MEQ/L
  SODIUM: 142.53 MEQ/L
  TOTAL BILIRUBIN: 0.2 mg/dL
  TOTAL PROTEIN: 6.05 G/DL
  URIC ACID: 0.6 mg/dL
[3]
  ABSOLUTE BASOPHIL: 0 CELLS/uL
  ABSOLUTE EOSINOPHIL: 54.67 CELLS/uL
  ABSOLUTE LYMPHOCYTE: 10865.33 CELLS/uL
  ABSOLUTE MONOCYTE: 53.67 CELLS/uL
  ABSOLUTE SEGMENTED NEUTROPHIL: 926.33 CELLS/uL
  BASOPHIL: 0%
  EOSINOPHIL: 0.67%
  ERYTHROCYTE COUNT: 5.23 x10E6/uL
  HEMATOCRIT: 34.4%
  HEMOGLOBIN: 13.4 G/DL
  LEUKOCYTE COUNT: 11.9 x10E3/uL
  LYMPHOCYTE: 91%
  MEAN CORPUSCULAR HEMOGLOBIN: 25.6 pg
  MEAN CORPUSCULAR HEMOGLOBIN CONCENTRATION: 39 G/DL
  MEAN CORPUSCULAR VOLUME: 65.73 fL
  MONOCYTE: 0.33%
  NEUTROPHIL: 8%
  NUCLEATED RED BLOOD CELLS: 0 /100WBC
  PLATELET COUNT: 973 x10E3/uL
  ALANINE AMINOTRANSFERASE: 62.67 u/L
  ALKALINE PHOSPHATASE: 333.33 u/L
  ASPARTATE AMINOTRANSFERASE: 94.33 u/L
  BLOOD UREA NITROGEN: 11.67 mg/dL
  CARBON DIOXIDE: 26.67 mmol/L
  CHLORIDE: 98 MEQ/L
  CHOLESTEROL: 63.67 mg/dL
  CREATINE PHOSPHOKINASE: 272.33 u/L
  CREATININE: 0.28 mg/dL
  GLUCOSE: 138 mg/dL
  LACTATE DEHYDROGENASE: 84 u/L
  LIPASE: 10.33 u/L
  PHOSPHORUS: 10.03 mg/dL
  POTASSIUM: 5.46 MEQ/L
  SODIUM: 142.1 MEQ/L
  TOTAL BILIRUBIN: 0.17 mg/dL
  TOTAL PROTEIN: 5.37 G/DL
  URIC ACID: 0.57 mg/dL
